Assay results: PubChem BioAssay (NCI)
“And” between values parts separate entries of the source, which are not always exact repeats. Equal values may be shown once.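 Briefly, cells in 96-well plates were exposed to five compound concentrations for 48 h, and endpoints were estimated by linear interpolation. Abbreviation: GI50, concentration required for 50% inhibition of growth. Definition used: TGI = concentration required for complete inhibition of growth.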

Columns and labels:
Assay in all cases: NCI tumour cell line growth inhibition, 48 h
K-562 leukemia = test system: K-562 leukemia
OVCAR-8 ovarian = test system: OVCAR-8 ovarian
OVCAR-3 ovarian = test system: OVCAR-3 ovarian
T-47D breast = test system: T-47D breast
SK-MEL-28 melanoma = test system: SK-MEL-28 melanoma
HCT-15 colon = test system: HCT-15 colon
MCF7 breast = test system: MCF7 breast
HS 578T breast = test system: HS 578T breast
NCI-H460 lung = test system: NCI-H460 lung
IGROV1 ovarian = test system: IGROV1 ovarian

Compound	GI50 (K-562 leukemia) [µM]	TGI (K-562 leukemia) [µM]	GI50 (OVCAR-8 ovarian)	TGI (OVCAR-8 ovarian)	GI50 (OVCAR-3 ovarian)	TGI (OVCAR-3 ovarian)	GI50 (T-47D breast) [µM]	TGI (T-47D breast)	GI50 (SK-MEL-28 melanoma)	TGI (SK-MEL-28 melanoma)	GI50 (HCT-15 colon)	TGI (HCT-15 colon)	GI50 (MCF7 breast) [µM]	TGI (MCF7 breast)	GI50 (HS 578T breast) [µM]	TGI (HS 578T breast) [µM]	GI50 (NCI-H460 lung)	TGI (NCI-H460 lung)	GI50 (IGROV1 ovarian)	TGI (IGROV1 ovarian)
C[C@H]1COCCN1c1nc(-c2cnc(N)cc2C(F)F)nc(N2CCOCC2)n1	0.692	> 100	0.291 µM	> 100 µM	0.224 µM	> 100 µM	0.0269	0.181 µM	0.115 µM	0.994 µM	0.183 µM	> 100 µM	0.0487	> 100 µM	0.1	0.551	0.113 µM	> 100 µM	0.0364 µM	0.285 µM
CC1=CC(C)(C)Nc2ccc(Cc3ccc4c(c3)C(C)=CC(C)(C)N4)cc21	3.6	51.8	9.59 µM	56.8 µM	6.4 µM	21.3 µM	3.77	35.2 µM	20.3 µM	> 100 µM	13.8 µM	72.6 µM	5.23	26.3 µM	8.14	47.4	12 µM	55.1 µM	16.1 µM	> 100 µM
Cc1nc2sc(C(=O)Nc3ccccc3)c(N)c2cc1C(O)c1ccccc1 (configuration not stated)	0.0933	> 59.2	0.408 µM	> 100 µM	0.263 µM	3.3 µM	1.27	> 31.8 µM	10.8 µM	> 100 µM	0.17 µM	> 100 µM	0.091	19.1 µM	0.325	> 35.1	0.329 µM	1.73 µM	0.445 µM	44.4 µM
Cc1c(Cl)cccc1NC(=O)c1sc2nc3c(cc2c1N)C(=O)CCC3	0.0371	> 100	0.272 µM	> 55.6 µM	0.048 µM	0.53 µM	0.055	> 100 µM	0.174 µM	> 100 µM	0.0665 µM	> 100 µM	0.0452	> 100 µM	0.0479	> 58.2	0.0407 µM	> 100 µM	0.153 µM	> 100 µM
CSc1nnc(-c2cc3c([nH]c4ccccc43)c(-c3cccc(O)c3)n2)n1-c1ccc(C)cc1	5.08	> 100	4.25 µM	45.2 µM	2.64 µM	9.24 µM	1.95	8.16 µM	2.23 µM	7.74 µM	3.55 µM	> 100 µM	2.5	> 100 µM	3.86	72.1	3.31 µM	14.6 µM	3.62 µM	24.6 µM
O=C(NNc1ccccc1)c1ccc(Cl)c(Cl)c1	–	> 100	–	> 100 µM	–	> 94 µM	–	> 100 µM	–	> 100 µM	–	> 100 µM	–	> 100 µM	–	> 100	–	> 100 µM	–	> 60.7 µM
COc1ccc(/C=C2\COc3ccc(O)c(O)c3C2=O)cc1OC	0.467	> 100	1.68 µM	15.7 µM	0.539 µM	3.31 µM	1.54	9.6 µM	1.8 µM	3.69 µM	0.488 µM	5.73 µM	0.682	> 100 µM	2.23	8.29	1.83 µM	5.02 µM	0.84 µM	3.53 µM
Cc1nn(Cc2ccccc2)cc1C(=O)Nc1sc2c(c1C(N)=O)CCC(=O)C2	1.7	13.1	3.27 µM	> 100 µM	1.7 µM	3.43 µM	1.27	3.79 µM	2.07 µM	4.29 µM	1.63 µM	3.72 µM	2.48	7.59 µM	2.51	9.71	3.52 µM	21.2 µM	2.44 µM	7.96 µM
Cc1ccc(NC(=S)C#N)c(C)c1	–	> 100	–	> 100 µM	–	> 100 µM	–	> 100 µM	–	> 100 µM	–	> 100 µM	–	> 100 µM	–	> 100	–	> 100 µM	–	> 100 µM
C[C@@H](CS[As](C)C)C(=O)N1CCC[C@H]1C(=O)O	0.051	1.1	0.299 µM	–	0.0736 µM	0.223 µM	0.606	5.75 µM	0.708 µM	21.8 µM	0.0888 µM	1.28 µM	0.249	2.03 µM	0.255	0.796	1.4 µM	13.7 µM	0.439 µM	3.21 µM
CC(=O)O[C@@H]1C2=C(C)C3(CC3)[C@@](C)(O)C(=O)C2=C[C@@]1(C)CO	0.482	> 100	0.427 µM	> 100 µM	0.319 µM	1.16 µM	0.635	7.03 µM	1.98 µM	4.52 µM	0.423 µM	10.1 µM	0.371	3.28 µM	1.68	5.75	0.296 µM	1.08 µM	0.598 µM	5.08 µM
c1cc(C2CCCCC2)ccc1-c1cnc2nonc2n1	0.4	18.8	1.38 µM	> 19.8 µM	0.557 µM	1.97 µM	0.631	2.78 µM	1.36 µM	2.99 µM	0.438 µM	2.26 µM	0.393	3.21 µM	1.02	> 58.3	1.38 µM	3.64 µM	1.13 µM	3.15 µM
COC(=O)c1ccc(NC(=O)c2ccc(NC3=C(Cl)C(=O)N(Cc4ccccc4)C3=O)cc2)cc1	19	> 100	11 µM	24.7 µM	14 µM	26.9 µM	74.1	> 100 µM	23.6 µM	47.3 µM	14.6 µM	27.7 µM	7.16	41.3 µM	35.9	> 100	27.3 µM	> 100 µM	1.53 µM	11.2 µM
C[C@@]1(C(=O)O)CCC[C@]2(C)C1CC[C@]13C[C@@](O)(CO)[C@](O)(CC[C@]12O)C3 (some centres not stated)	> 100	> 100	> 100 µM	> 100 µM	> 100 µM	> 100 µM	> 100	> 100 µM	> 100 µM	> 100 µM	> 100 µM	> 100 µM	> 100	> 100 µM	> 100	> 100	> 100 µM	> 100 µM	> 100 µM	> 100 µM
O=C(NCCCl)Nc1ccccc1	–	> 100	–	> 100 µM	–	> 100 µM	–	> 100 µM	–	> 100 µM	–	> 100 µM	–	> 100 µM	–	> 100	–	> 100 µM	–	> 100 µM
CCN(CC)S(=O)(=O)c1cccc(-c2ccc3c(NC(=O)C4CC4)n[nH]c3c2)c1	0.381	> 6.25	2.69 µM	> 6.25 µM	1.9 µM	> 6.25 µM	1.05	> 6.25 µM	3.06 µM	> 6.25 µM	2.4 µM	> 6.25 µM	1.19	> 6.25 µM	1.83	> 6.25	2.08 µM	> 6.25 µM	3.79 µM	> 6.25 µM
Cc1ccc(-c2c3c(nn2-c2ccc(S(=O)(=O)NC(=O)NC4CCCCC4)cc2)-c2ccccc2C3)cc1	3.1	13.5	26.2 µM	70.7 µM	17.7 µM	35.7 µM	25.7	> 100 µM	18.3 µM	37.5 µM	16.1 µM	47.7 µM	5.88	37.3 µM	20.5	60.4	8.75 µM	26.3 µM	12.9 µM	27.9 µM
Cn1cc(C2=C(c3cc[nH]c3)C(=O)NC2=O)c2ccccc21	> 25	> 25	> 25 µM	> 25 µM	> 22.7 µM	> 25 µM	> 17.5	> 25 µM	> 25 µM	> 25 µM	> 25 µM	> 25 µM	11.8	> 25 µM	9.97	> 25	> 25 µM	> 25 µM	> 25 µM	> 25 µM
CC(C)(C)C(=O)c1c(C(F)(F)F)n([O-])c2cc(Cl)c(Cl)cc2[n+]1=O	0.582	1.15	0.502 µM	1.51 µM	0.125 µM	0.363 µM	0.613	1.29 µM	0.618 µM	1.6 µM	0.257 µM	0.652 µM	0.168	0.566 µM	0.16	0.554	0.279 µM	0.767 µM	0.077 µM	0.213 µM
O=C(CSC(c1ccccc1)c1ccccc1)N/N=C/c1ccccc1Cl	10.2	46.8	17.9 µM	> 79.4 µM	15.6 µM	57.3 µM	> 100	> 100 µM	46.1 µM	> 100 µM	8.36 µM	> 51 µM	11.2	> 52.8 µM	9.64	> 56.9	34 µM	> 63.2 µM	8.07 µM	> 55.6 µM
O=C(N=Nc1c(Cl)c(O)c2ccccc2c1O)C(=O)Nc1cccc(C(F)(F)F)c1	3.94	25.6	3.39 µM	13.6 µM	1.77 µM	4.64 µM	4.92	41.3 µM	10.4 µM	23.3 µM	3.21 µM	12 µM	1.84	4.31 µM	2.6	8.6	3.3 µM	12.4 µM	2.99 µM	21.4 µM
CC(C)c1[nH]nc2c(NCc3ccc(-c4ccccn4)cc3)nc(SCCN)nc12	0.0198	10.2	0.0387 µM and 0.0243 µM	12.9 µM	0.0189 µM and 0.0162 µM	10.1 µM	0.0182	0.089 µM	0.0197 µM and 0.0124 µM	0.171 µM and 0.239 µM	0.672 µM and 0.683 µM	10.9 µM	0.00401	2.28 µM and 10.2 µM	0.0151	–	0.0381 µM and 0.0356 µM	2.05 µM and 10 µM	0.0215 µM and 0.0231 µM	12.4 µM
O=C(NCc1ccco1)C1CCN(S(=O)(=O)c2ccc(Cl)cc2)CC1	39.2	> 100	> 100 µM	> 100 µM	> 100 µM	> 100 µM	> 100	> 100 µM	> 100 µM	> 100 µM	39.6 µM	> 100 µM	37.8	> 100 µM	> 100	> 100	47.5 µM	> 100 µM	> 100 µM	> 100 µM
CN(C)CCNC(=O)c1cccc2c1Oc1cccc([N+](=O)[O-])c1O2	–	45.5	–	50 µM	–	49.7 µM	–	27.9 µM	–	38.9 µM	–	> 100 µM	–	40.6 µM	–	40.2	–	35.4 µM	–	34.1 µM
COC(=O)c1c2c(c(C)[n+]([O-])c1C)C(=O)C(NCc1ccc(F)cc1)=CC2=O	2.43	> 100	1.59 µM	7.78 µM	0.319 µM	1.11 µM	1.72	4.23 µM	3.2 µM	15.6 µM	1.23 µM	3 µM	1.11	2.86 µM	2.47	8.03	0.792 µM	5.98 µM	1.15 µM	2.76 µM
Oc1ccc(Cl)cc1Sc1cc(Cl)ccc1O	3.8	> 100	3.36 µM	42.7 µM and 10.8 µM	2.79 µM	15.4 µM and 6.8 µM	2.76	20.8 µM and 9.93 µM	4.67 µM	26.3 µM and 15.3 µM	3.19 µM	45.5 µM and 11.4 µM	3.33	34.5 µM and 10.7 µM	–	29.7	3.45 µM	24.8 µM and 9.2 µM	3.52 µM	32.5 µM and 9.5 µM
C=C1C(=O)O[C@@H]2CC(CO)=C([C@@H](C)CCCO)[C@@H](OC(=O)/C(C)=C\C)[C@H]12	–	31.2	–	> 76.8 µM	–	26.2 µM	–	49.7 µM	–	29.3 µM	–	31.3 µM	–	23.4 µM	–	> 100	–	48.2 µM	–	35 µM
